Tests used:
Test in all cases: NCI 60-cell line growth inhibition assay
Assay type in all cases: cell-based
PC-3 = settings: Homo sapiens
NCI-H322M = settings: Homo sapiens; Non-Small Cell Lung, NCI-H322M
MOLT-4 = settings: Homo sapiens
HCT-116 = settings: Homo sapiens
NCI-H226 = settings: Homo sapiens; Non-Small Cell Lung, NCI-H226
MDA-MB-435 = settings: Homo sapiens
SF-268 = settings: Homo sapiens
SK-OV-3 = settings: Homo sapiens
IGROV1 = settings: Homo sapiens, IGROV-1
OVCAR-4 = settings: Homo sapiens
SK-MEL-5 = settings: Homo sapiens
K-562 = settings: Homo sapiens, K562
COLO 205 = settings: Homo sapiens
HCC-2998 = settings: Homo sapiens
RPMI-8226 = settings: Homo sapiens
EKVX = settings: Homo sapiens; Non-Small Cell Lung, EKVX
KM12 = settings: Homo sapiens
NCI/ADR-RES = settings: Homo sapiens
HOP-92 = settings: Homo sapiens
A549/ATCC = settings: Homo sapiens
M14 = settings: Homo sapiens
CCRF-CEM = settings: Homo sapiens
HOP-62 = settings: Homo sapiens
NCI-H23 = settings: Homo sapiens
NCI-H460 = settings: Homo sapiens
HCT-15 = settings: Homo sapiens
T-47D = settings: Homo sapiens, T47D
MALME-3M = settings: Homo sapiens
SNB-19 = settings: Homo sapiens
SK-MEL-2 = settings: Homo sapiens
CAKI-1 = settings: Homo sapiens
SF-295 = settings: Homo sapiens
A498 = settings: Homo sapiens
NCI-H522 = settings: Homo sapiens; NCI-H522 (Non-Small Cell Lung)
SR = settings: Homo sapiens; SR (Leukemia)
HL-60(TB) = settings: Homo sapiens; HL-60(TB) (Leukemia)
SW-620 = settings: Homo sapiens; SW-620 (Colon)
LOX IMVI = settings: Homo sapiens; LOX IMVI (Melanoma)
SN12C = settings: Homo sapiens; SN12C (Renal)

Q: What does the source list for CC[C@H](CO)Nc1nc(NCc2ccc(-c3ccccc3)cc2)c2ncn(C(C)C)c2n1 [Compound 73]?
A: GI50 (PC-3; Prostate, PC-3): 350 nM; GI50 (NCI-H322M): 160 nM; GI50 (MOLT-4; Leukemia, MOLT-4): 320 nM; GI50 (HCT-116; Colon, HCT-116): 200 nM; GI50 (NCI-H226): 220 nM; GI50 (MDA-MB-435; Breast, MDA-MB-435): 250 nM; GI50 (SF-268; CNS, SF-268): 160 nM; GI50 (SK-OV-3; Ovarian, SK-OV-3): 950 nM; GI50 (IGROV1; Ovarian, IGROV1): 320 nM; GI50 (OVCAR-4; Ovarian, OVCAR-4): 320 nM; GI50 (SK-MEL-5; Melanoma, SK-MEL-5): 250 nM; GI50 (K-562; Leukemia, K-562): 160 nM; GI50 (COLO 205; Colon, COLO 205): 280 nM; GI50 (HCC-2998; Colon, HCC-2998): 200 nM; GI50 (RPMI-8226; Leukemia, RPMI-8226): 30 nM; GI50 (EKVX): 250 nM; GI50 (KM12; Colon, KM12): 130 nM; GI50 (NCI/ADR-RES; Breast, NCI/ADR-RES): 400 nM; GI50 (HOP-92; Non-Small Cell Lung, HOP-92): 1000 nM; GI50 (A549/ATCC; Non-Small Cell Lung, A549/ATCC): 30 nM; GI50 (M14; Melanoma, M14): 30 nM; GI50 (CCRF-CEM; Leukemia, CCRF-CEM): 250 nM; GI50 (HOP-62; Non-Small Cell Lung, HOP-62): 60 nM; GI50 (NCI-H23; Non-Small Cell Lung, NCI-H23): 320 nM; GI50 (NCI-H460; Non-Small Cell Lung, NCI-H460): 400 nM; GI50 (HCT-15; Colon, HCT-15): 180 nM; GI50 (T-47D; Breast, T-47D): 250 nM; GI50 (MALME-3M; Melanoma, MALME-3M): 270 nM; GI50 (SNB-19; CNS, SNB-19): 430 nM; GI50 (SK-MEL-2; Melanoma, SK-MEL-2): 630 nM; GI50 (CAKI-1; Renal, CAKI-1): 1660 nM; GI50 (SF-295; CNS, SF-295): 250 nM; GI50 (A498; Renal, A498): 2880 nM

Q: For CC(=O)N[C@H]1CC[C@H](Nc2nc(NCc3ccc(-c4ccccc4)nc3)c3ncn(C(C)C)c3n2)CC1 [Compound 87], which GI50 (PC-3; PC-3 (Prostate)) is on record?
A: 18 nM

Q: What about the GI50 (MOLT-4; MOLT-4 (Leukemia)) of the same compound?
A: 20 nM

Q: What about the GI50 (HCT-116; HCT-116 (Colon)) of the same compound?
A: 37 nM

Q: What about the GI50 (NCI-H522) of the same compound?
A: < 10 nM

Q: What about the GI50 (MDA-MB-435; MDA-MB-435 (Breast)) of the same compound?
A: < 10 nM

Q: What about the GI50 (SR) of the same compound?
A: 32 nM

Q: What about the GI50 (HL-60(TB)) of the same compound?
A: < 10 nM

Q: And the GI50 (SW-620)?
A: < 10 nM

Q: What about the GI50 (SF-268; SF-268 (CNS)) of the same compound?
A: < 10 nM

Q: What about the GI50 (SK-OV-3; SK-OV-3 (Ovarian)) of the same compound?
A: 350 nM

Q: What about the GI50 (IGROV1; IGROV1 (Ovarian)) of the same compound?
A: 52 nM

Q: What about the GI50 (LOX IMVI) of the same compound?
A: 27 nM

Q: What about the GI50 (OVCAR-4; OVCAR-4 (Ovarian)) of the same compound?
A: 48 nM

Q: What about the GI50 (SK-MEL-5; SK-MEL-5 (Melanoma)) of the same compound?
A: 28 nM

Q: And the GI50 (K-562; K-562 (Leukemia))?
A: 24 nM

Q: What about the GI50 (COLO 205; COLO 205 (Colon)) of the same compound?
A: < 10 nM

Q: What about the GI50 (HCC-2998; HCC-2998 (Colon)) of the same compound?
A: < 10 nM

Q: And the GI50 (RPMI-8226; RPMI-8226 (Leukemia))?
A: < 10 nM

Q: What about the GI50 (SN12C) of the same compound?
A: < 10 nM

Q: What about the GI50 (KM12; KM12 (Colon)) of the same compound?
A: < 10 nM

Q: What about the GI50 (NCI/ADR-RES; NCI/ADR-RES (Breast)) of the same compound?
A: 280 nM

Q: What about the GI50 (HOP-92; HOP-92 (Non-Small Cell Lung)) of the same compound?
A: 88 nM

Q: What about the GI50 (A549/ATCC; A549/ATCC (Non-Small Cell Lung)) of the same compound?
A: < 10 nM

Q: What about the GI50 (M14; M14 (Melanoma)) of the same compound?
A: < 10 nM

Q: What about the GI50 (CCRF-CEM; CCRF-CEM (Leukemia)) of the same compound?
A: < 10 nM

Q: What about the GI50 (HOP-62; HOP-62 (Non-Small Cell Lung)) of the same compound?
A: 10 nM

Q: And the GI50 (NCI-H23; NCI-H23 (Non-Small Cell Lung))?
A: 22 nM

Q: And the GI50 (NCI-H460; NCI-H460 (Non-Small Cell Lung))?
A: 220 nM

Q: And the GI50 (HCT-15; HCT-15 (Colon))?
A: 66 nM

Q: What about the GI50 (T-47D; T-47D (Breast)) of the same compound?
A: 48 nM

Q: What about the GI50 (MALME-3M; MALME-3M (Melanoma)) of the same compound?
A: 24 nM

Q: And the GI50 (SNB-19; SNB-19 (CNS))?
A: 38 nM

Q: And the GI50 (SK-MEL-2; SK-MEL-2 (Melanoma))?
A: 56 nM

Q: What about the GI50 (CAKI-1; CAKI-1 (Renal)) of the same compound?
A: 64 nM

Q: And the GI50 (SF-295; SF-295 (CNS))?
A: 47 nM

Q: What about the GI50 (A498; A498 (Renal)) of the same compound?
A: 100 nM
